Measurements taken from publication PMC4609890, “Discovery of novel small molecule modulators of Clavibacter michiganensis subsp. michiganensis” (Frontiers in Microbiology, 2015).
Converted amounts (≈) assume the structure as drawn.

Tests used:
[1] = test system: Clavibacter michiganensis subsp. michiganensis (Cmm); test: Minimum inhibitory concentration (MIC) for Cmm growth; format: cell-based; details: read-out: MICs
Experimental: Seventy-seven selected compounds were re-ordered from ChemBridge in a 96-well format as a powder. The compounds were dissolved in 100 μl DMSO and stored at -80°C until used. […] In addition, ability of Cmm to develop resistance to selected compounds was tested. […]

[2] = test system: Clavibacter michiganensis subsp. michiganensis (Cmm); test: Minimum bacteriocidal concentration (MBC) for Cmm; format: cell-based; details: read-out: MBCs
Experimental: (§1) Seventy-seven selected compounds were re-ordered from ChemBridge in a 96-well format as a powder. The compounds were dissolved in 100 μl DMSO and stored at -80°C until used. […] In addition, ability of Cmm to develop resistance to selected compounds was tested.
(§2) Single step and sequential passage resistance assays were performed as described previously with few modifications ([Ling et al., 2015]). Eleven of the 12 top hit compounds were tested in this experiment and one could not be resynthesized. […] The MBCs for each of these compounds were determined as described previously ([Ling et al., 2015]).

[3] = test system: Clavibacter michiganensis subsp. michiganensis (Cmm); test: Resistance evaluation by sequential passage at sub-lethal doses; format: cell-based; details: 15 passages in liquid NBY at 0.75X MIC
Experimental: as §2
Clavibacter michiganensis subsp. michiganensis cultures grown in NBY broth medium at 28°C for 24 h were suspended in fresh NBY broth and normalized to an OD600 of 0.01 (5 × 10^6 CFU/ml). One-hundred microliters fresh culture was transferred to duplicate wells of a 96-well microtiter plate each containing 0.75× MIC of a test compound (concentration allowing >50% growth inhibition). Cmm cultured in 20 μg/ml chloramphenicol, 50 μg/ml kanamycin, or 2% DMSO, or non-amended NBY broth were used as controls. The bacteria were incubated at 28°C, 150 rpm, for 24 h in the dark. Following incubation, plates were centrifuged at 2,100 × g for 5 min at room temperature. The supernatant was discarded, bacteria were resuspended in 100 μl fresh NBY and transferred into a new 96-well plate containing 0.75× MIC of the same small molecule. This procedure was repeated 14 times. Following 15 passages, bacterial suspensions were assessed for resistance to the test compound by assessing MIC and MBC as noted above.

[4] = test system: Clavibacter michiganensis subsp. michiganensis (Cmm); test: Resistance evaluation by single step at a lethal dose; format: cell-based; details: 5 days on NBY agar with 2X MIC, 1 × 10^9 CFU
Experimental: as §2
Cmm grown in NBY medium at 28°C for 48 h was centrifuged at 4,700 × g for 15 min at room temperature. Supernatant was discarded and bacteria were resuspended in sterile water to a concentration of 2 × 10^10 CFU/ml). Compounds (2× MIC) were mixed with […] of molten NBY agar medium and transferred to duplicate wells of a 24-well culture plate. Agar in the plate was allowed to solidify in the dark. Fifty microlitre of Cmm culture (1 × 10^9 CFU) was added to test wells, dried in the dark at room temperature, and incubated at 28°C for 5 days in the dark. Bacteria spread on NBY agar with 50 μg/ml kanamycin or NBY agar itself was used as positive and negative controls, respectively. After 5 days of incubation, any colonies that developed were assessed for resistance to the test compounds by determining MIC and the MBC as noted above.

[5] = test system: Cmm strains; test: Secondary screen kinetic growth inhibition of Cmm strains; format: cell-based, Clavibacter michiganensis subsp. michiganensis; details: kinetic growth 24 h
Experimental: as §1
(§3) Screening for growth inhibition of Cmm strains, plant beneficial bacteria and human gut bacteria was set up similarly to the initial screen using 1 μl of 2 μmol suspensions of each compound. Plates were incubated in a Sunrise^TM Tecan microplate reader for kinetic measurement of growth every 15 min for 24 h. Growth curves were analyzed in DB interface software and the effect of each compound on growth was evaluated based on the ratio of area under growth curve (compound/control) as “no significant effect (ratio > 0.5),” “inhibition (ratio ≤ 0.5),” “static (ratio = 0, bacterial growth revived after streak on a fresh NBY plate)” and “cidal (ratio = 0, bacterial growth not revived)” ([Wallace et al., 2011]).

[6] = test system: Bacillus subtilis GB03; test: Secondary screen kinetic growth inhibition of B. subtilis; format: cell-based; details: 200 μM
Experimental: as §1, §3

[7] = test system: Gram-negative bacteria tested; test: Secondary screen kinetic growth inhibition of Gram-negative bacteria; format: cell-based; details: 200 μM
Experimental: as §1, §3

[8] = test system: plant beneficial bacteria and human gut bacteria; test: Secondary screen on plant beneficial bacteria and human gut bacteria (antibacterial spectrum); format: cell-based; details: compared with other 11 compounds; data not shown
Experimental: as §1, §3

[9] = test system: Cmm BL-Cmm17; test: Bioluminescent Cmm tomato seedling infection assay; format: in vivo; details: seeds infested with BL-Cmm17, compound applied to seed, 8-days-old seedlings plated
Experimental: A bioluminescent Cmm strain, BL-Cmm17, was used to monitor the effect of selected small molecules on Cmm infection of tomato seedlings in vivo ([Xu et al., 2010]). Briefly, tomato seeds (cv. OH9242) were infested by soaking in BL-Cmm17 suspension (10^8 CFU/ml) in a 100-ml sterile beaker. The beaker was placed in a Nucerite Desiccator (Nalge Sybron Corporation, Rochester, NY, USA), and a vacuum was applied for 5 min using an Air Cadet pump (Barnant, Barrington, IL, USA) with a maximum of 18 lb/in^2 pressure. Seeds treated similarly with sterilized water were used as controls. After inoculation, seeds were air-dried and one seed was placed in a 1.2 ml library tube containing 400 μl of 1% water agar; tubes were placed in wells of a 96-well plate. The selected compound (1 μl of 2 μmol in 50 μl water) was applied to each seed and the plate was incubated at 25°C under 8 h/16 h light/dark conditions. There were three replicate seeds/plate per treatment. Bioluminescence images were taken using an in vivo imaging system (IVIS Model 100; PerkinElmer, Waltham, MA, USA) 3 and 8 days later. Eight-days-old seedlings were ground in potassium phosphate buffer and extracts were serially diluted and plated on NBY to assess the presence of Cmm.

Q: What does the source list for `Cc1ccnc(Nc2nc(-c3ccc(O)c(O)c3)cs2)c1` [Compound 7]?
A: MIC [1]: 50 µM (≈ 15 µg/mL); MBC [2]: 50 µM (≈ 15 µg/mL); Resistant colonies after growth at sub-lethal (0.75X MIC) concentration [3]: None; Resistant colonies after incubation at lethal (2X MIC) concentration [4]: None; Effect on Cmm growth [5]: cidal (cidal (ratio = 0, bacterial growth not revived)); Effect on B. subtilis growth [6]: cidal (cidal (ratio = 0, bacterial growth not revived)); Effect on growth of Gram-negative bacteria tested [7]: not

Q: For `COc1cccc(-c2ccccc2NC(=O)C2CCN(Cc3ccc(OC)cc3F)CC2)c1` [Compound 1], which MIC [1] is on record?
A: 25 µM (≈ 11.2 µg/mL)

Q: What about the MBC [2] of the same compound?
A: 25 µM (≈ 11.2 µg/mL)

Q: And the “Resistant colonies after growth at sub-lethal (0.75X MIC) concentration” value (shortened to “Resistant colonies after growth”) [3]?
A: None

Q: What about the “Resistant colonies after incubation at lethal (2X MIC) concentration” value (“Resistant colonies after incubation” for short) [4] of the same compound?
A: None

Q: Which results are given for `CCCOc1ccc(C(=O)C2=C(O)C(=O)N(CCCN(C)C)C2c2ccc(Cl)cc2)cc1C` (stereo not drawn) [Compound 9]?
A: MIC [1]: 50 µM (≈ 23.5 µg/mL); MBC [2]: 100 µM (≈ 47.1 µg/mL); Resistant colonies after growth at sub-lethal (0.75X MIC) concentration [3]: None; Resistant colonies after incubation at lethal (2X MIC) concentration [4]: None

Q: What does the source list for `CC1CCC(C(C)C)C(OC(=O)Cn2c[n+](CC(=O)OC3CC(C)CCC3C(C)C)c3ccccc32)C1` (stereo not drawn) [Compound 5]?
A: MIC [1]: 5 µM; MBC [2]: 5 µM; Resistant colonies after growth at sub-lethal (0.75X MIC) concentration [3]: None; Resistant colonies after incubation at lethal (2X MIC) concentration [4]: None; Antibacterial spectrum [8]: broader antibacterial spectrum

Q: How did the MIC [1] turn out when `CCOC(=O)N1CCN(CC(O)COc2ccc(C3CCCCC3)cc2)CC1` (stereo not drawn) [Compound 8] was run?
A: 50 µM (≈ 19.5 µg/mL)

Q: And the MBC [2]?
A: 50 µM (≈ 19.5 µg/mL)

Q: And the “Resistant colonies after growth” value [3]?
A: None

Q: And the “Resistant colonies after incubation” value [4]?
A: None

Q: `Cc1cc(O)ccc1Nc1nc(-c2cccs2)cs1` [Compound 3] was tested. Which MIC [1] did it give?
A: 50 µM (≈ 14.4 µg/mL)

Q: And the MBC [2]?
A: 50 µM (≈ 14.4 µg/mL)

Q: What about the “Resistant colonies after growth” value [3] of the same compound?
A: None

Q: What about the “Resistant colonies after incubation” value [4] of the same compound?
A: None

Q: What about the “Effect on Cmm growth” value [5] of the same compound?
A: cidal (cidal (ratio = 0, bacterial growth not revived))

Q: And the “Effect on B. subtilis growth” value [6]?
A: cidal (cidal (ratio = 0, bacterial growth not revived))

Q: And the “Effect on growth of Gram-negative bacteria tested” value [7]?
A: not

Q: `CC(C)Cc1ccc(CN2CCCC(NC(=O)CCn3c(CO)nc4ccccc43)C2)cc1` (stereo not drawn) [Compound 4] was tested. Which MIC [1] did it give?
A: 100 µM (≈ 44.9 µg/mL)

Q: What about the MBC [2] of the same compound?
A: 100 µM (≈ 44.9 µg/mL)

Q: What about the “Resistant colonies after growth” value [3] of the same compound?
A: None

Q: And the “Resistant colonies after incubation” value [4]?
A: None

Q: With `CN(Cc1nc2ccccc2[nH]1)Cc1c[nH]nc1-c1ccc(-c2ccccc2)cc1` [Compound 2] as the compound, how does the MIC [1] read?
A: 25 µM (≈ 9.84 µg/mL)

Q: What about the MBC [2] of the same compound?
A: 50 µM (≈ 19.7 µg/mL)

Q: What about the “Resistant colonies after growth” value [3] of the same compound?
A: None

Q: And the “Resistant colonies after incubation” value [4]?
A: None

Q: How did the MIC [1] turn out when `O=C(Nc1cccc(-c2cscn2)c1)C1CCN(C/C=C/c2ccc(F)cc2)CC1` [Compound 6] was run?
A: 50 µM (≈ 21.1 µg/mL)

Q: And the MBC [2]?
A: 50 µM (≈ 21.1 µg/mL)

Q: What about the “Resistant colonies after growth” value [3] of the same compound?
A: None

Q: And the “Resistant colonies after incubation” value [4]?
A: None

Q: Which MIC [1] does the source give for `COc1cccc(-c2ccc(NC(=O)C3CCCN(Cc4cccc(O)c4)C3)cc2)c1` (stereo not drawn) [Compound 12] here?
A: 12.5 µM (≈ 5.21 µg/mL)

Q: And the MBC [2]?
A: 25 µM (≈ 10.4 µg/mL)

Q: What about the “Resistant colonies after growth” value [3] of the same compound?
A: None

Q: And the “Resistant colonies after incubation” value [4]?
A: None

Q: And the “Cmm growth reduction in tomato seedlings” value [9]?
A: over 0.5 log
